In general, viability refers to a read-out of living cells in per cent, often relative to untreated cells. Read a low viability as more harm to the cells. One may read the IC50 as the concentration that inhibits the measured activity by half. A word on the melting point: it is the temperature of the solid-liquid transition.

The nature of series [1]: Cell viability (WST-1), A549. It counts as cell-based. The note with it: human, A549 cells, mean ± SEM, n = 3. On the procedure:
(§1) Cells were incubated with the WST-1 reagent (Thermo Fisher Scientific, Waltham, MA, USA) at 37 °C for 2 h. The cell viability was determined by spectrophotometer at 450 nm.

In the next series the target is Recombinant EGFR kinase (Homo sapiens, UniProt P00533). As to the kind of experiment: Recombinant EGFR kinase activity. It is filed as biochemical. The settings on record: read-out: Recombinant EGFR Kinase Activity (%inh at 150 nM).
Chain of Recombinant EGFR kinase (P00533 25-1210): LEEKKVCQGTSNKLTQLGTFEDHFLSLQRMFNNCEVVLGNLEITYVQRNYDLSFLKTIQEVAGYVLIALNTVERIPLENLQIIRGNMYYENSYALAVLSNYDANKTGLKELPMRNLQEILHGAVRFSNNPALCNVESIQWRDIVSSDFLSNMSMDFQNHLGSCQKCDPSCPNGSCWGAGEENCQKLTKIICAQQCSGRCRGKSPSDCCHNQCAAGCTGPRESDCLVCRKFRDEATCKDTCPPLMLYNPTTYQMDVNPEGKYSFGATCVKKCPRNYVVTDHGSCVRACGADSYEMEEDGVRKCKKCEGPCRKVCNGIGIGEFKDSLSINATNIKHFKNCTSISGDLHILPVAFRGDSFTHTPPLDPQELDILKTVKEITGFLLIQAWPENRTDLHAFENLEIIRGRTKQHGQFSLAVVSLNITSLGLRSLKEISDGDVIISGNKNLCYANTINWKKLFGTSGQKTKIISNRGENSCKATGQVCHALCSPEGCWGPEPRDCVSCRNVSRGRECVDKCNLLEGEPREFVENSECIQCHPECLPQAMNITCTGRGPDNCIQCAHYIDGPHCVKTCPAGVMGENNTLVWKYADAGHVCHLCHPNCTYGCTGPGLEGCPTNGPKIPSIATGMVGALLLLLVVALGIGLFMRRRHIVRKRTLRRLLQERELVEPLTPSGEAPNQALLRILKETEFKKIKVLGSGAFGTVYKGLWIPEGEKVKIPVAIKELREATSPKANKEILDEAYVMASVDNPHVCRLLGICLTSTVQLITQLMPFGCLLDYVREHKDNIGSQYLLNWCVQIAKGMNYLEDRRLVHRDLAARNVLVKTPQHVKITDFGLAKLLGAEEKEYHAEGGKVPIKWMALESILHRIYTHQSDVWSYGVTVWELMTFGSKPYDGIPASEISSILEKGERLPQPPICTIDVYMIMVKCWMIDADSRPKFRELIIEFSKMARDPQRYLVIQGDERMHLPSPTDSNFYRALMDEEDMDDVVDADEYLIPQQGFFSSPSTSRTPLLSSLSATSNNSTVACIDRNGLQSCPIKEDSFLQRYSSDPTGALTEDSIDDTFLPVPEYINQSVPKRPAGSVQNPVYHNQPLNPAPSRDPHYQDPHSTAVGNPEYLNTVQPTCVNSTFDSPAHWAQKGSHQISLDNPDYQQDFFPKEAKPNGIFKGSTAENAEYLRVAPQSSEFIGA
A further series concerns TNFα production. The series can be described thus: TNFα production in LPS-activated dTHP-1 cells (ELISA). It is filed as cell-based. The settings on record: Homo sapiens. On the procedure:
(§2) The HEK-293 (ATCC Cat# CRL-1573, RRID:CVCL_0045) and human monocytic THP−1 cells (ATCC Cat# TIB-202, RRID:CVCL_0006) were, respectively, cultured in DMEM and RPMI 1640 media supplemented with 10% fetal bovine serum, 2 mM L-glutamine, and 1× Antibiotic-Antimycotic at 37 °C in a humidified incubator with 5% CO2. THP−1 cells were differentiated by 100 nM phorbol-12-myristate-13-acetate (PMA) for 4 h and then rested for 44 h as dTHP−1 cells.
(§3) The dTHP−1 cells were treated with indicated compounds for 3 h and then activated with or without 100 ng/mL lipopolysaccharide (LPS; E. coli 0111:B4) for another 24 h. The levels of human IL-6 and TNFα in supernatants were measured by DuoSet® ELISA Development System (R&D systems, Minneapolis, MN, USA) according to the manufacturer’s protocol.

In another series the test system is IL-6 production. The series can be described thus: IL-6 production in LPS-activated dTHP-1 cells (ELISA). The settings on record: Homo sapiens. It counts as cell-based, human. On the procedure:
as §2, §3

For the next series, the system named is dTHP−1 cells. As to the kind of experiment: Cell viability of dTHP-1 cells with or without LPS. It is filed as cell-based, human. The settings on record: in % (unit assumed). On the procedure: as §2, §1, §3
For another series, the system named is NF-κB p65. The series can be described thus: Nuclear translocation of NF-κB p65, immunofluorescent staining. It counts as cell-based, human. The settings on record: 7.5 µM, 3 h, then LPS 0.1 µg/mL 30 min; dTHP-1 cells. On the procedure: Cells were fixed with 4% formaldehyde and then incubated with 5% goat serum. The intracellular location of NF-κB p65 was determined using primary antibodies against NF-κB p65 (Cell Signaling Technology, Beverly, MA, USA) and FITC-conjugated secondary antibody. Nuclei were counterstained with Hoechst (1 µg/mL). Images were obtained by fluorescent microscopy (OLYMPUS IX 81; Olympus, Tokyo, Japan).
(§4) The dTHP−1 cells were incubated with DMSO (0.1%), 19 (7.5 µM), or CAPE (10 µM) in medium for 3 h and then stimulated with or without LPS (0.1 µg/mL) for another 30 min. (A) Nuclear translocation of NF-κB p65 (green) was determined by immunofluorescent microscopy. Hoechst (blue) was used for nuclei staining. (B) The nuclear NF-κB p65-positive cells were quantified. (C) The levels of phospho-NF-κB p65 (S468), IκB, and GAPDH were determined by Western blot. (D) The normalized phospho-NF-κB p65 (S468) and IκB levels were quantified. All data are expressed as mean ± SEM (n = 3); ** p < 0.01 and *** p < 0.001 compared with the DMSO + LPS group.

A further series has as its system phospho-NF-κB p65 (S468). The series can be described thus: Western blot phospho-NF-κB p65 (S468) in dTHP-1 cells. It is filed as cell-based, human. The note with it: 7.5 µM; LPS-stimulated dTHP-1 cells. On the procedure: (§5) Cells were lysed in the commercial RIPA Buffer (Thermo Fisher Scientific, Waltham, MA, USA) and then centrifuged at 14,000× g for 20 min. […] Antibodies used in this study were phospho-NF-κB p65 (S468; catalog no. 3039), phospho-NF-κB p65 (S536; catalog no. 3033), phospho-IKKα/β (catalog no. 2697), and IκB (catalog no. 9242) from Cell Signaling Technology (Beverly, MA, USA); GAPDH from ABclonal (catalog no. A10868; Woburn, MA, USA). The labeled signals were determined using an enhanced chemiluminescence system (UVP, Upland, CA, USA). The experiments were performed at least two times in triplicate, providing basically the same results.
as §4
A general note: Immunoblotting shows a protein as a band on a membrane.

A further series deals with phospho-NF-κB p65 (S536). The series can be described thus: Western blot phospho-NF-κB p65 (S536) in dTHP-1 cells. It counts as cell-based, human. The settings on record: 7.5 µM; LPS-stimulated dTHP-1 cells. On the procedure:
as §5
The dTHP−1 cells were incubated with DMSO (0.1%), 19 (7.5 µM), or CAPE (10 µM) in medium for 3 h and then stimulated with or without LPS (0.1 µg/mL) for another 30 min. (A) The levels of phospho-NF-κB p65 (S536), phospho-IKKα/β, IκB, and GAPDH were determined by Western blot. The normalized (B) phospho-NF-κB p65 (S536), (C) phospho-IKKα/β, and (D) IκB levels were quantified. All data are expressed as mean ± SEM (n = 3); * p < 0.05 compared with the DMSO + LPS group.

Series [2] concerns the target T1, MAP3K7/MAP3K7IP1 (TAK1-TAB1) (Homo sapiens, UniProt O43318).
T1 construct: purchased Thermo Fisher Scientific (screening service)
As to the kind of experiment: Kinase selectivity profiling (Thermo Fisher). The settings on record: ATP 100 μM, mean of duplicates. It is filed as biochemical. On the procedure: (§6) Tabl e S1. Selectivity profiling of compound 19 ag ainst the protein kinases known to regulate the NF-kB pathway ki nase % Inhibiti on at 2 µMa […]
(§7) aScreenings were perf or med as a servi ce at Thermo Fisher Scientific at an ATP concentrat ion of 100 μM. n.i., no inhi biti on. Data represent mean values of duplicat es that differed by less t han 7%.

For the next series, the target named is T2, PRKCZ (PKC zeta) (Homo sapiens, UniProt Q05513).
T2 construct: purchased Thermo Fisher Scientific (screening service)
T2 sequence (Q05513 whole entry): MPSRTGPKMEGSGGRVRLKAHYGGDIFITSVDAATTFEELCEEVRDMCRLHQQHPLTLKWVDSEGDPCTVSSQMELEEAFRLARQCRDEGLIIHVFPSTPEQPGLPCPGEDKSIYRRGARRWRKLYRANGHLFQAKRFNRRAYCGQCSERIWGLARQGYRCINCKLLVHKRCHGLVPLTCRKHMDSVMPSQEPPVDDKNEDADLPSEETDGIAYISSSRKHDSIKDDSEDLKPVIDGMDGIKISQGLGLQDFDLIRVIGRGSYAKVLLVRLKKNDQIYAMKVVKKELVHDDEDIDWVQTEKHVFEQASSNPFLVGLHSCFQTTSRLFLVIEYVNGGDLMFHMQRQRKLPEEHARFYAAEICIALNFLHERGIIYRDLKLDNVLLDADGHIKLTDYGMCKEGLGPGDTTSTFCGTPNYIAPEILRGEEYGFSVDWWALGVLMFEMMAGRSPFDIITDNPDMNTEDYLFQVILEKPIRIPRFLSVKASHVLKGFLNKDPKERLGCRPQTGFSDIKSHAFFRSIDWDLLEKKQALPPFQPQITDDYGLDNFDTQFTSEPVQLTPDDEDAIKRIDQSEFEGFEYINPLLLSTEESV
The series can be described thus: Kinase selectivity profiling (Thermo Fisher). It is filed as biochemical. The note with it: ATP 100 μM, mean of duplicates. On the procedure: as §6, §7

The subject of series [3] is protein kinases known to regulate the NF-κB pathway. The series can be described thus: Kinase screening panel as a whole. It is filed as biochemical. The settings on record: Table S1.
Source text: While the EGFR kinase inhibitory activity was largely abolished here, it could not be excluded that our modifications may have generated affinity to another kinase. The most important kinases to be checked were those reported to phosphorylate p65-Ser468 in different cell types, comprising GSK3β, IKKβ, and IKKɛ [45, 46, 47]. In addition, all the kinases described in the literature to control the canonical and non-canonical pathway of NF-κB activation were also included in the screening panel. […] Instead, the inhibitory effect of 19 on the Ser468 phosphorylation might be indirect, e.g., through interference with proteins complexes regulating the Ser468 kinase activity.
as §6, §7

Setting [4] is: LPS-activated dTHP-1 cells, 24 h.

Entries after “also recorded” stand apart in the source; their conditions may differ.

T1 sequence (O43318 with tags, fused parts or gaps limits assumed): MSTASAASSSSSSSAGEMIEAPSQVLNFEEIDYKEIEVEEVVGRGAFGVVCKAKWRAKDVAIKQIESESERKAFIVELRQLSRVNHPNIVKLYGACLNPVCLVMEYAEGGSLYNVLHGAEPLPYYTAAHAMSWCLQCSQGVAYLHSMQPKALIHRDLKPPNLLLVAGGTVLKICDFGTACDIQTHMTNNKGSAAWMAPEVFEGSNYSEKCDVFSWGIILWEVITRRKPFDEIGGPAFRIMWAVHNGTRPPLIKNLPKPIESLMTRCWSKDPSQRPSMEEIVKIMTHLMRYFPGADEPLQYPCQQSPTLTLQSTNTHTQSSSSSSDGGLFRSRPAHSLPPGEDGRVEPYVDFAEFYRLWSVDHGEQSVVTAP

In the case of `S=C(Nc1ccc2ncnc(Nc3cccc(Cl)c3)c2c1)NC1CCCC1` [Compound 19, 1-(4-((3-Chlorophenyl)amino)quinazolin-6-yl)-3-cyclopentylthiourea], the melting point was in the range of 229.1 to 231.6 °C. The molecule further yielded a viability at 10 µM in [1] of 99.9 ± 1.6%. The inhibition at 0.15 µM on Recombinant EGFR kinase came out at 23%. Moreover, the inhibition at 7.5 µM in the series with TNFα production (7.5 μM, LPS 100 ng/mL for 24 h, dTHP-1 cells, read-out: TNFα Production Inh % (7.5 μM)) came to 82.5 ± 5.6%. Besides, in the series with TNFα production (15 μM, LPS 100 ng/mL for 24 h, dTHP-1 cells, read-out: TNFα Production Inh % (15 μM)), the inhibition at 15 µM is 91.5 ± 2.5%. This molecule also yielded an IC50 with TNFα production (setting [4]) of 4000 ± 200 nM. For the same molecule, in the series on IL-6 production (7.5 μM, LPS 100 ng/mL for 24 h, dTHP-1 cells, read-out: IL-6 Production Inh % (7.5 μM)), the inhibition at 7.5 µM was determined as 92.7 ± 5.5%. Moreover, the inhibition at 15 µM in the series on IL-6 production (15 μM, LPS 100 ng/mL for 24 h, dTHP-1 cells, read-out: IL-6 Production Inh % (15 μM)) was 98.3 ± 0.28%. In the series with IL-6 production (setting [4]), this molecule returned a concentration for half-maximal inhibition (IC50) of 840 ± 120 nM. In the series on dTHP−1 cells (5 μM (so in the source), LPS 100 ng/mL for 24 h), the “Cell viability of dTHP-1 cells, 5 μM, LPS” value was determined as 4.9 ± 0.38. In the series on dTHP−1 cells (5 μM (so in the source), no LPS), the “Cell viability of dTHP-1 cells, 5 μM, without LPS” value stood at 30.0 ± 1.3. Also, the “Cell viability of dTHP-1 cells, 7.5 μM, without LPS” value in the series on dTHP−1 cells (7.5 μM, no LPS) is 60.3 ± 0.85. The “LPS-induced nuclear translocation of NF-κB p65” value in the series on NF-κB p65 is “inhibits the LPS-induced nuclear translocation of NF-κB p65; also recorded: clearly inhibited the nuclear translocation of NF-κB”. In the series on phospho-NF-κB p65 (S468), the “Phosphorylation of p65-Ser468” value is “significantly diminished phosphorylation of p65-Ser468”. For the same molecule, the “Phosphorylation of p65 at Ser536” value in the series on phospho-NF-κB p65 (S536) is “not affected”. Also, in series [2], the inhibition at 2 µM was found to be 3%. The same molecule registered an inhibition at 2 µM against PRKCZ (PKC zeta) of 3%. Besides, in [3], the “Inhibition of kinases involved in NF-κB activation (panel)” value was “did not appreciably inhibit any of these kinases”.

(Values after article PMC9322122, “Development of (4-Phenylamino)quinazoline Alkylthiourea Derivatives as Novel NF-κB Inhibitors” (Pharmaceuticals, 2022).)
